Legend:
HSP70 [1] = assay: In vitro HSP70 expression in heated MFH cells (immunoassay kit, Western Blot); format: cell-based; conditions: GGA 10^-5 M or 10^-4 M, 45° C. for 15 minutes, measured 6 hours after heating
Description: Cultivation of MFH cells was carried out by using a 100 mm Petri dish for culturing cells into which 10 ml of a medium had been charged, at 37° C. for 24 hours in an incubator into which 5% of carbon dioxide was added. As the medium, a medium comprising Dulbecco's modified Eagle's Medium that contains 10% fetal bovine serum and, as antibiotics, penicillin G potassium (100 U/ml) and streptomycin sulfate ([…]) was used.
After 6 hours from completion of the heating, a culture broth was removed from the Petri dish for culturing, the cells were washed twice with a physiological saline, a liquid to dissolve the cells attached to a HSP70 immunoassay kit was added to the cells with a predetermined amount to extract HSP70 from the cells. This was quantitated by the immunoassay kit. Also, the cells extract was subjected to electrophoresis, and an amount of HSP70 was qualitatively examined by Western Blot.

HSP70 [2] = assay: HSP70 immunostain of tumor tissue after GGA administration; format: in vivo; conditions: F344 rat MFH tumor, GGA locally injected 12 hours after MCL, tumor cut out 2 hours after GGA, FIG. 1
Description: (§1) As experimental individuals, F344 rats (female, 7 to 8-weeks old) were used. MFH cells 1×10^7 cultured on Petri dish for cell-cultivation were dispersed in about 50 μl of a physiologically buffered saline, and then, the cells suspension was transplanted subcutaneously to a right leg of an experimental individual by using a scalp vein needle (25G×5/8″) (Terumo Corporation) to make a cancer-carried experimental individual. Nembutal (available from Dainippon Pharmaceutical Co., Ltd.) was used for anesthesia, and that diluted to five times (50 mg/kg body weight) was administered to abdominal cavity.
Under anesthesia of a rat, MCL with a concentration of 7.5 mg/ml and 3.3 mg of net weight magnetite was administered to the tumor tissue of the rat 10 days after transplantation of the MFH cells over 30 minutes by using a microsyringe pump (SP100i syringe pump, manufactured by WPI Co.), and thereafter, the rat was allowed to stand for 30 minutes. Magnetic field irradiation was carried out after 24 hours from injection of the MCL.

MFH cells = assay: Tumor regression in MFH cancer-carried F344 rats under MCL hyperthermia (tumor tissue volume); format: in vivo, rat; conditions: (GGA+AMF) Group: hyperthermia using MCL and GGA in combination, magnetic field irradiation three times, among 8 individuals
Description: as §1
A slurry of the magnetite (particle diameter 10 nm; available from Toda Kogyo Corporation) was sufficiently washed with a distilled water to remove unnecessary ion components, subjected to ultrasonic wave treatment, to obtain colloidal magnetite. […]
Under anesthesia of experimental individuals, a longer diameter and a shorter diameter of the tumor tissue were measured by using calipers and calculated out from the following formula. […]

## geranylgeranyl acetone [GGA]
HSP70 [1]
  expressed amount of the HSP70 after applying thermal stress: increased depending on an amount of the GGA added
HSP70 [2]
  induction of HSP70 in tumor tissue (HSP70 stain): induction of HSP70 was confirmed
MFH cells
  individuals whose tumors were completely regressed and cured: 8 individuals

From patent US20050013875A1, “Immunopotentiators in thermotherapy for cancer” (priority 2001, published 2005)
